Tests used:
Test in all cases: relative viability (nuclei count vs DMSO), 5 days (fraction); higher = more cells survive
RERF-LC-KJ = system: RERF-LC-KJ
How it was run: (§1)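 Values are medians from duplicate plates. Each reflects relative viability, defined as the nuclei count of treated wells over that of vehicle wells. Lung cancer cell lines in 1536-well plates were pin-tool dosed one day after seeding with one drug alone or with a fixed anchor-drug dose plus five library-drug doses (not always all listed) in √10 steps, then fixed, stained and imaged at 4× after 5 days.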

NCI-H2126 = system: NCI-H2126
How it was run: as §1

NCI-H1666 = system: NCI-H1666
How it was run: as §1

COR-L 105 = system: COR-L 105
How it was run: as §1

NCI-H520 = system: NCI-H520
How it was run: as §1

NCI-H522 = system: NCI-H522
How it was run: as §1

NCI-H661 = system: NCI-H661
How it was run: as §1

ChaGo-K-1 = system: ChaGo-K-1
How it was run: as §1

NCI-H23 = system: NCI-H23
How it was run: as §1

NCI-H650 = system: NCI-H650
How it was run: as §1

NCI-H647 = system: NCI-H647
How it was run: as §1

NCI-H2347 = system: NCI-H2347
How it was run: as §1

NCI-H1915 = system: NCI-H1915
How it was run: as §1

PC-14 = system: PC-14
How it was run: as §1

LC-2-ad = system: LC-2-ad
How it was run: as §1

HCC-78 = system: HCC-78
How it was run: as §1

201T = system: 201T
How it was run: as §1

EPLC-272H = system: EPLC-272H
How it was run: as §1

LCLC-97TM1 = system: LCLC-97TM1
How it was run: as §1

NCI-H2405 = system: NCI-H2405
How it was run: as §1

HCC-827 = system: HCC-827
How it was run: as §1

NCI-H2087 = system: NCI-H2087
How it was run: as §1

NCI-H322M = system: NCI-H322M
How it was run: as §1

H3255 = system: H3255
How it was run: as §1

Question: What does the source list for `CC(C)Oc1cc(Nc2nc(N[C@@H](C)c3ccc(F)cn3)ncc2Cl)n[nH]1` [AZ23] + Nc1ncn([C@H]2C[C@H](O)[C@@H](CO)O2)c(=O)n1 [Decitabine] (partner 2 µM)?
Answer: relative viability (RERF-LC-KJ; first compound 0.01 µM): 0.783; relative viability (RERF-LC-KJ; first compound 0.03162 µM): 0.74; relative viability (RERF-LC-KJ; first compound 0.3162 µM): 0.817; relative viability (NCI-H2126; first compound 0.01 µM): 0.612; relative viability (NCI-H2126; first compound 0.03162 µM): 0.615; relative viability (NCI-H2126; first compound 0.3162 µM): 0.558; relative viability (NCI-H1666; first compound 0.01 µM): 0.711; relative viability (NCI-H1666; first compound 0.03162 µM): 0.755; relative viability (NCI-H1666; first compound 0.3162 µM): 0.672; relative viability (COR-L 105; first compound 0.01 µM): 0.547; relative viability (COR-L 105; first compound 0.03162 µM): 0.65; relative viability (COR-L 105; first compound 0.3162 µM): 0.708; relative viability (NCI-H520; first compound 0.01 µM): 0.634; relative viability (NCI-H520; first compound 0.03162 µM): 0.524; relative viability (NCI-H520; first compound 0.3162 µM): 0.418; relative viability (NCI-H522; first compound 0.01 µM): 0.701; relative viability (NCI-H522; first compound 0.03162 µM): 0.736; relative viability (NCI-H522; first compound 0.3162 µM): 0.679; relative viability (NCI-H661; first compound 0.01 µM): 0.556; relative viability (NCI-H661; first compound 0.03162 µM): 0.582; relative viability (NCI-H661; first compound 0.3162 µM): 0.604; relative viability (ChaGo-K-1; first compound 0.01 µM): 0.567; relative viability (ChaGo-K-1; first compound 0.03162 µM): 0.512; relative viability (ChaGo-K-1; first compound 0.3162 µM): 0.519; relative viability (NCI-H23; first compound 0.03162 µM): 0.307; relative viability (NCI-H23; first compound 0.3162 µM): 0.274; relative viability (NCI-H650; first compound 0.01 µM): 0.355; relative viability (NCI-H650; first compound 0.03162 µM): 0.329; relative viability (NCI-H650; first compound 0.3162 µM): 0.336; relative viability (NCI-H647; first compound 0.01 µM): 0.364; relative viability (NCI-H647; first compound 0.03162 µM): 0.415; relative viability (NCI-H647; first compound 0.3162 µM): 0.41; relative viability (NCI-H2347; first compound 0.01 µM): 0.652; relative viability (NCI-H2347; first compound 0.03162 µM): 0.571; relative viability (NCI-H2347; first compound 0.3162 µM): 0.625; relative viability (NCI-H1915; first compound 0.01 µM): 0.293; relative viability (NCI-H1915; first compound 0.03162 µM): 0.272; relative viability (NCI-H1915; first compound 0.3162 µM): 0.269; relative viability (PC-14; first compound 0.01 µM): 0.191; relative viability (PC-14; first compound 0.03162 µM): 0.213; relative viability (PC-14; first compound 0.3162 µM): 0.263; relative viability (LC-2-ad; first compound 0.01 µM): 1.01; relative viability (LC-2-ad; first compound 0.03162 µM): 0.862; relative viability (LC-2-ad; first compound 0.3162 µM): 0.782; relative viability (HCC-78; first compound 0.01 µM): 0.725; relative viability (HCC-78; first compound 0.03162 µM): 0.777; relative viability (HCC-78; first compound 0.3162 µM): 0.728; relative viability (201T; first compound 0.01 µM): 0.91; relative viability (201T; first compound 0.03162 µM): 0.875; relative viability (201T; first compound 0.3162 µM): 0.86; relative viability (EPLC-272H; first compound 0.03162 µM): 0.344; relative viability (EPLC-272H; first compound 0.3162 µM): 0.389; relative viability (LCLC-97TM1; first compound 0.01 µM): 0.273; relative viability (LCLC-97TM1; first compound 0.03162 µM): 0.212; relative viability (LCLC-97TM1; first compound 0.3162 µM): 0.233; relative viability (NCI-H2405; first compound 0.01 µM): 0.774; relative viability (NCI-H2405; first compound 0.03162 µM): 0.805; relative viability (NCI-H2405; first compound 0.3162 µM): 0.721; relative viability (HCC-827; first compound 0.01 µM): 0.361; relative viability (HCC-827; first compound 0.03162 µM): 0.316; relative viability (HCC-827; first compound 0.3162 µM): 0.323; relative viability (NCI-H2087; first compound 0.01 µM): 0.303; relative viability (NCI-H2087; first compound 0.03162 µM): 0.265; relative viability (NCI-H2087; first compound 0.3162 µM): 0.237; relative viability (NCI-H322M; first compound 0.01 µM): 0.533; relative viability (NCI-H322M; first compound 0.03162 µM): 0.668; relative viability (NCI-H322M; first compound 0.3162 µM): 0.7; relative viability (H3255; first compound 0.01 µM): 0.496; relative viability (H3255; first compound 0.03162 µM): 0.634; relative viability (H3255; first compound 0.3162 µM): 0.613

Reference: the supplement of paper PMC10307832
